Where a name gives a salt, the structure may show the parent alone.
The compounds below were run on NQO1 specific enzyme activity in BEAS-2B cells (marker for NRF2 activation) (assay: BEAS-2B NQO1 MTT Assay). Conditions: Homo sapiens, BEAS-2B, 48 h, NQO1 specific activity induction, 48 hours with compound.
Assay type: cell-based
Method in brief: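 Cells plated overnight at 37° C., 5% CO2, then exposed to compound for 48 hours. NQO1 activity read in crude lysates with MTT cocktail as kinetic absorbance at 570 nm over 30 minutes. pEC50 from Delta OD/min versus log concentration with a 3-parameter fit.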

**Q.** For CCn1cc(COC(c2ccc(C)c(CN(C3CCCCC3)S(=O)(=O)c3cccc(OC)c3)c2)C(C)(C)C(=O)O)nn1 (stereo not shown) [Example 96, 3-(3-(((N-cyclohexyl-3-methoxyphenyl)sulfamido)methyl)-4-methylphenyl)-3-((1-ethyl-1H-1,2,3-triazol-4-yl)methoxy)-2,2-dimethylpropanoic acid], which EC50 is on record?
**A.** 100 to 1000 nM

**Q.** For Cc1ccc(C(OCc2cn(C3CCCCC3)nn2)C(C)(C)C(=O)O)cc1CN1C[C@@H](C)Oc2ccccc2S1(=O)=O (stereo partly drawn) [Example 17, 3-((1-Cyclohexyl-1H-1,2,3-triazol-4-yl)methoxy)-2,2-dimethyl-3-(4-methyl-3-(((R)-4-methyl-1,1-dioxido-3,4-dihydro-2H-benzo[b][1,4,5]oxathiazepin-2-yl)methyl)phenyl)propanoic acid], which EC50 is on record?
**A.** 1 to 10 nM

**Q.** Cc1ccc([C@@H](OCc2cn(CCOCCN=[N+]=[N-])nn2)C(C)(C)C(=O)O)cc1CN1C[C@@H](C)Oc2ccccc2S1(=O)=O (single isomer, unassigned) [Example 15] was tested. Which EC50 did it give?
**A.** 10 to 100 nM

**Q.** With Cc1ccc([C@@H](OCc2cn(Cc3ccc(Cn4cc(CO[C@H](c5ccc(C)c(CN6C[C@@H](C)Oc7ccccc7S6(=O)=O)c5)C(C)(C)C(=O)O)nn4)cc3)nn2)C(C)(C)C(=O)O)cc1CN1C[C@@H](C)Oc2ccccc2S1(=O)=O (relative stereo) [Example 49, (R,rel-(3R,3′R))-3,3′-(((1,1′-(1,4-phenylenebis(methylene))bis(1H-1,2,3-triazole-4,1-diyl))bis(methylene))bis(oxy))bis(2,2-dimethyl-3-(4-methyl-3-(((R)-4-methyl-1,1-dioxido-3,4-dihydro-2H-benzo[b][1,4,5]oxathiazepin-2-yl)methyl)phenyl)propanoic acid)] as the compound, how does the EC50 read?
**A.** 100 to 1000 nM

**Q.** With Cc1ccc(C(OCc2cn(Cc3cccc(Br)c3)nn2)C(C)(C)C(=O)O)cc1CN1C[C@@H](C)Oc2ccccc2S1(=O)=O (stereo partly drawn) [Example 1, 3-((1-(3-Bromobenzyl)-1H-1,2,3-triazol-4-yl)methoxy)-2,2-dimethyl-3-(4-methyl-3-(((R)-4-methyl-1,1-dioxido-3,4-dihydro-2H-benzo[b][1,4,5]oxathiazepin-2-yl)methyl)phenyl)propanoic acid] as the compound, how does the EC50 read?
**A.** < 1 nM

**Q.** CCn1cc(CO[C@@H](c2ccc(C)c(CN3C[C@@H](C)Cc4ncccc4S3(=O)=O)c2)C(C)(C)C(=O)O)nn1 [Example 72, (3S)-((1-ethyl-1H-1,2,3-triazol-4-yl)methoxy)-2,2-dimethyl-3-(4-methyl-3-(((S)-4-methyl-1,1-dioxido-4,5-dihydropyrido[2,3-f][1,2]thiazepin-2(3H)-yl)methyl)phenyl)propanoic acid] was tested. Which EC50 did it give?
**A.** 10 to 100 nM

**Q.** CCn1cc(CO[C@H](c2ccc(C)c(CN(Cc3cccc(C(=O)O)c3)S(=O)(=O)c3ccccc3)c2)C(C)(C)C(=O)O)nn1 [Example 91, (R)-3-((N-(5-(2-carboxy-1-((1-ethyl-1H-1,2,3-triazol-4-yl)methoxy)-2-methylpropyl)-2-methylbenzyl)phenylsulfonamido)methyl)benzoic acid] was tested. Which EC50 did it give?
**A.** 1000 to 10000 nM

**Q.** How did the EC50 turn out when CCn1cc(CO[C@@H](c2ccc(C)c(CN3C[C@H](C)Cc4ccccc4S3(=O)=O)c2)C(C)(C)C(=O)O)nn1 [Example 65, (3S)-((1-ethyl-1H-1,2,3-triazol-4-yl)methoxy)-2,2-dimethyl-3-(4-methyl-3-(((R)-4-methyl-1,1-dioxido-4,5-dihydrobenzo[f][1,2]thiazepin-2(3H)-yl)methyl)phenyl)propanoic acid] was run?
**A.** 100 to 1000 nM

**Q.** Which EC50 does the source give for Cc1ccc([C@H](OCc2cn(C)nn2)C(C)(C)C(=O)O)cc1CN1Cc2ncccc2O[C@H](C(C)C)C1 [Example 112, (S)-3-(3-(((R)-2-isopropyl-2,3-dihydropyrido[2,3-f][1,4]oxazepin-4(5H)-yl)methyl)-4-methylphenyl)-2,2-dimethyl-3-((1-methyl-1H-1,2,3-triazol-4-yl)-methoxy)propanoic acid, trifluoroacetate] here?
**A.** 10 to 100 nM

**Q.** With Cc1ccc(C(OCc2cn(CC3CCCN(C(=O)OC(C)(C)C)C3)nn2)C(C)(C)C(=O)O)cc1CN1C[C@@H](C)Oc2ccccc2S1(=O)=O (stereo partly drawn) [Example 18, 3-((1-((1-(Tert-butoxycarbonyl)piperidin-3-yl)methyl)-1H-1,2,3-triazol-4-yl)methoxy)-2,2-dimethyl-3-(4-methyl-3-(((R)-4-methyl-1,1-dioxido-3,4-dihydro-2H-benzo[b][1,4,5]oxathiazepin-2-yl)methyl)phenyl)propanoic acid] as the compound, how does the EC50 read?
**A.** 1 to 10 nM

**Q.** With COC(=O)C(C)(C)C(OCc1cn(Cc2cccc(-c3ccnc(C(=O)O)c3)c2)nn1)c1ccc(C)c(CN2C[C@@H](C)Oc3ccccc3S2(=O)=O)c1 (stereo partly drawn) [Example 57, 4-(3-((4-((3-Methoxy-2,2-dimethyl-1-(4-methyl-3-(((R)-4-methyl-1,1-dioxido-3,4-dihydro-2H-benzo[b][1,4,5]oxathiazepin-2-yl)methyl)phenyl)-3-oxopropoxy)methyl)-1H-1,2,3-triazol-1-yl)methyl)phenyl)picolinic acid] as the compound, how does the EC50 read?
**A.** 100 to 1000 nM

**Q.** With CC[C@H]1Cc2ccccc2S(=O)(=O)N(Cc2cc([C@H](OCc3cn(CC)nn3)C(C)(C)C(=O)O)ccc2C)C1 [Example 81, (3S)-((1-ethyl-1H-1,2,3-triazol-4-yl)methoxy)-2,2-dimethyl-3-(4-methyl-3-(((S)-4-ethyl-1,1-dioxido-4,5-dihydrobenzo[f][1,2]thiazepin-2(3H)-yl)methyl)phenyl)propanoic acid] as the compound, how does the EC50 read?
**A.** 1 to 10 nM

**Q.** For Cc1ccc(C(OCc2cn(CC3CCN(C(=O)c4ccccc4)CC3)nn2)C(C)(C)C(=O)O)cc1CN1C[C@@H](C)Oc2ccccc2S1(=O)=O (stereo partly drawn) [Example 31, 3-((1-((1-Benzoylpiperidin-4-yl)methyl)-1H-1,2,3-triazol-4-yl)methoxy)-2,2-dimethyl-3-(4-methyl-3-(((R)-4-methyl-1,1-dioxido-3,4-dihydro-2H-benzo[b][1,4,5]oxathiazepin-2-yl)methyl)phenyl)propanoic acid], which EC50 is on record?
**A.** 10 to 100 nM

**Q.** Which EC50 does the source give for CC[C@@H]1CN(Cc2cc(C(OCc3cn(Cc4cccc(-c5ccc(C(=O)O)c(F)c5)c4)nn3)C(C)(C)C(=O)O)ccc2C)S(=O)(=O)c2ccccc2O1 (stereo partly drawn) [Example 24, 3′-((4-((2-Carboxy-1-(3-(((R)-4-ethyl-1,1-dioxido-3,4-dihydro-2H-benzo[b][1,4,5]oxathiazepin-2-yl)methyl)-4-methylphenyl)-2-methylpropoxy)methyl)-1H-1,2,3-triazol-1-yl)methyl)-3-fluoro-[1,1′-biphenyl]-4-carboxylic acid] here?
**A.** 10 to 100 nM

**Q.** With COCCn1cc(CO[C@H](c2ccc(C)c(CN(Cc3ccccc3)S(=O)(=O)c3cccc(C(=O)O)c3)c2)C(C)(C)C(=O)O)nn1 [Example 94, (R)-3-(N-benzyl-N-(5-(2-carboxy-1-((1-(2-methoxyethyl)-1H-1,2,3-triazol-4-yl)methoxy)-2-methylpropyl)-2-methylbenzyl)sulfamoyl)benzoic acid] as the compound, how does the EC50 read?
**A.** 100 to 1000 nM

**Q.** For CCCn1cc(CO[C@H](c2ccc(C)c(CN3CC(C)(C)Oc4ccccc4S3(=O)=O)c2)C(C)(C)C(=O)O)nn1 [Example 78, (R)-3-(3-((4,4-dimethyl-1,1-dioxido-3,4-dihydro-2H-benzo[b][1,4,5]oxathiazepin-2-yl)methyl)-4-methylphenyl)-2,2-dimethyl-3-((1-propyl-1H-1,2,3-triazol-4-yl)methoxy)propanoic acid], which EC50 is on record?
**A.** 1 to 10 nM

Reference: US12091409B2, “Ether linked triazoles as NRF2 activators” (ASTEX THERAPEUTICS LIMITED, priority 2016, dated 2024)
